Measured values taken from PubChem BioAssay AID1963835 (Molecular Pharmacology Branch, DTP, NCI, 2024).
Values joined by “and” are separate entries in the source; they are usually repeats but may differ in a detail not shown here. Identical values can stand only once.

System: 699152-130-R-J1-PDC complex spheroid viability
Experiment: Anticancer human tumor 699152-130-R-J1-PDC patient-derived pancreatic carcinoma cell line growth inhibition [POLQ]
Conditions: for viability, T/C: stronger effect = lower value
Protocol: Multicellular complex tumor spheroid response to Polymerase (POL) inhibitors (novobiocin, ART-558, RP6685) in combination with a variety of drugs and investigational agents in selected tumor cell lines
The POL inhibitors (novobiocin, ART-558, and RP6685) were evaluated both individually and in combination with standard of care and investigational anticancer small molecules within a complex spheroid model of solid tumors. . Complex spheroids include a stromal component modeled by human endothelial cells (HUVEC) and fibroblasts modeled by human mesenchymal stem cells (MSCs). The concentration ranges selected for each drug and investigational agent were based upon clinically achievable concentrations if the clinical Cmax of the agent was known.
Compounds. The drugs and investigational agents: novobiocin (NSC847541), ART-558 (NSC835418), RP-6685 (NSC848927), peposertib (NSC802822), ceralasertib (NSC780249), elimusertib (NSC800525), camonsertib (NSC841442), AZD-1390 (NSC803789), olaparib (NSC753686), talazoparib (NSC767125), rucaparib (NSC756644), sotorasib (NSC818433), MRTX-1133 (NSC836407), SN-38 (NSC673596), topotecan (NSC609699), epotoside (NSC141540), doxorubicin (NSC123127), gemcitabine (NSC613327), 5-fluorouracil (NSC19893), paclitaxel (NSC125973), vemurafenib (NSC761431), MSA-2 (NSC828583), SN-011 (NSC837082), adavosertib (NSC754352), prexasertib (NSC758257), carboplatin (NSC241240) and oxaliplatin (NSC266046), were obtained from the National Cancer Institute (NCI) Developmental Therapeutics Program Chemical Repository (21). The FDA-approved anticancer drug set is available from the Developmental Therapeutics Program at https://dtp.cancer.gov/organization/dscb/obtaining/. […] The stock solutions were prepared in dimethyl sulfoxide (DMSO, Sigma-Aldrich, St. Louis, MO, cat. D2650), except for the platinum compounds which were prepared in saline (Quality Biological, Gaithersburg, MD, cat. 114-055-101), at 800-fold the tested concentration and stored at -70 degrees C prior to their use. All drugs and investigational agents were tested over a range starting from a high concentration at or near the clinical Cmax and decreasing in half-log increments. If the clinical Cmax for an agent had not been determined, the highest concentration tested was 10 microM, except for SN-38, which was tested at a high concentration of 1 microM.
Cell Culture. All cells were maintained in an incubator at 37 degrees C and 5% CO2 with 95% humidity. The PDC lines were cultured according to standard operating procedures established by the NCI PDMR (https://pdmr.cancer.gov). Table 3 of the manuscript, lists the cell lines along with the number of the three cell types plated to form the mct-spheroids and media for tumor cell growth. After thawing, all PDC lines, except 997537-175-T-J1-PDC and 415267-285-R-J2-PDC, were cultured in Matrigel-coated flasks prepared with a working solution of 1X Ham's F-12 nutrient mix, without supplementation (Thermo Fisher Scientific, cat. 11765054), 100 U/mL penicillin-streptomycin (Thermo Fisher Scientific, cat. 15140122), and 2.5% Matrigel (Corning Inc., Corning, NY, cat. 354248) for the first three passages. The two PDC lines 997537-175-T-J1-PDC and 415267-285-R-J2-PDC were cultured on uncoated flasks. The 857933-349-R-J2-PDC line was cultured in 6C/Colon 1B media containing advanced DMEM/F-12 (Thermo Fisher Scientific, cat. 12634028), 10 mM HEPES (Thermo Fisher Scientific, cat. 15630080), 1X GlutaMAX supplement (Thermo Fisher Scientific, cat. 35050061), 0.1 mg/mL primocin (InvivoGen, San Diego, CA, cat. ant-pm-2), 10% defined fetal bovine serum, heat inactivated (HyClone Laboratories Inc., Logan, UT, cat. SH30070.03HI), 50% L-WRN conditioned media (ATCC, cat. CRL-3276), 1.25 mM N-Acetyl-L-cysteine (Sigma-Aldrich, cat. A9165), 10 mM nicotinamide (Sigma-Aldrich, cat. N0636), 1X B-27 supplement (Thermo Fisher Scientific, cat. 17504044), 1X N-2 supplement (Thermo Fisher Scientific, cat. […]
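Further: spheroids exposed to agents for 7 days before viability reading.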
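Wherever viability, T/C is given: percent of DMSO vehicle control viability so 100% = vehicle and 0% = no viable signal.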

CC1COCCN1c1cc(C2(O)CC3CCC(C2)O3)c2cnn(-c3ccn[nH]3)c2n1 (stereo unspecified)
viability, T/C (compound 0.0316 µM): 85.2% and 93.5% and 88.1% | viability, T/C (compound 0.1 µM): 80.7% and 83.5% and 80% | viability, T/C (compound 0.316 µM): 65.9% and 63.9% and 67.3% | viability, T/C (compound 1 µM): 56% and 53.3% and 57.5% | viability, T/C (compound 3.16 µM): 47.1% and 48.7% and 44.4% | viability, T/C (compound 10 µM): 35.8% and 33.2% and 36.5% | IC50 (curve of compound): 1.99 µM and 1.72 µM and 1.94 µM

C=CCn1c(=O)c2cnc(Nc3ccc(N4CCN(C)CC4)cc3)nc2n1-c1cccc(C(C)(C)O)n1
viability, T/C (compound 0.00316 µM): 103% and 97% and 105% | viability, T/C (compound 0.01 µM): 104% and 91.6% and 100% | viability, T/C (compound 0.0316 µM): 88.6% and 89.3% and 105% | viability, T/C (compound 0.1 µM): 96.8% and 92.2% and 110% | viability, T/C (compound 0.316 µM): 90.3% and 78.7% and 84.2% | viability, T/C (compound 1 µM): 74.6% and 69.8% and 72.5% | IC50 (curve of compound): > 1 µM

CC(C)n1c(=O)n(C)c2cnc3cc(F)c(-c4ccc(OCCCN5CCCCC5)nc4)cc3c21 + Nc1ccc(C#CCN(C(=O)Cc2ncc(C(F)(F)F)cc2C(F)(F)F)c2ccc(F)cc2)nn1
IC50 (curve of first compound, second compound 0.0316 µM): > 10 µM | IC50 (curve of first compound, second compound 0.1 µM): > 10 µM | IC50 (curve of first compound, second compound 0.316 µM): > 10 µM | IC50 (curve of first compound, second compound 1 µM): > 10 µM | IC50 (curve of first compound, second compound 3.16 µM): > 10 µM | IC50 (curve of first compound, second compound 10 µM): > 10 µM | viability, T/C (second compound 0.0316 µM, first compound 0.0316 µM): 88.5% | viability, T/C (second compound 0.0316 µM, first compound 0.1 µM): 111% | viability, T/C (second compound 0.0316 µM, first compound 0.316 µM): 93.5% | viability, T/C (second compound 0.0316 µM, first compound 1 µM): 97.9% | viability, T/C (second compound 0.0316 µM, first compound 3.16 µM): 104% | viability, T/C (second compound 0.0316 µM, first compound 10 µM): 96.8% | viability, T/C (second compound 0.1 µM, first compound 0.0316 µM): 118% | viability, T/C (second compound 0.1 µM, first compound 0.1 µM): 103% | viability, T/C (second compound 0.1 µM, first compound 0.316 µM): 106% | viability, T/C (second compound 0.1 µM, first compound 1 µM): 108% | viability, T/C (second compound 0.1 µM, first compound 3.16 µM): 101% | viability, T/C (second compound 0.1 µM, first compound 10 µM): 86.9% | viability, T/C (second compound 0.316 µM, first compound 0.0316 µM): 98.1% | viability, T/C (second compound 0.316 µM, first compound 0.1 µM): 105% | viability, T/C (second compound 0.316 µM, first compound 0.316 µM): 103% | viability, T/C (second compound 0.316 µM, first compound 1 µM): 116% | viability, T/C (second compound 0.316 µM, first compound 3.16 µM): 104% | viability, T/C (second compound 0.316 µM, first compound 10 µM): 89.5% | viability, T/C (second compound 1 µM, first compound 0.0316 µM): 109% | viability, T/C (second compound 1 µM, first compound 0.1 µM): 93.6% | viability, T/C (second compound 1 µM, first compound 0.316 µM): 103% | viability, T/C (second compound 1 µM, first compound 1 µM): 111% | viability, T/C (second compound 1 µM, first compound 3.16 µM): 106% | viability, T/C (second compound 1 µM, first compound 10 µM): 89% | viability, T/C (second compound 3.16 µM, first compound 0.0316 µM): 116% | viability, T/C (second compound 3.16 µM, first compound 0.1 µM): 98.2% | viability, T/C (second compound 3.16 µM, first compound 0.316 µM): 112% | viability, T/C (second compound 3.16 µM, first compound 1 µM): 118% | viability, T/C (second compound 3.16 µM, first compound 3.16 µM): 108% | viability, T/C (second compound 3.16 µM, first compound 10 µM): 86.2% | viability, T/C (second compound 10 µM, first compound 0.0316 µM): 116% | viability, T/C (second compound 10 µM, first compound 0.1 µM): 119% | viability, T/C (second compound 10 µM, first compound 0.316 µM): 121% | viability, T/C (second compound 10 µM, first compound 1 µM): 113% | viability, T/C (second compound 10 µM, first compound 3.16 µM): 112% | viability, T/C (second compound 10 µM, first compound 10 µM): 91.9%
